# Paper PMC4932537, “Search for Potent and Selective Aurora A Inhibitors Based on General Ser/Thr Kinase Pharmacophore Model” (Pharmaceuticals, 2016)
# Columns and labels:
# Aurora A = biological target: T1, Aurora A (Homo sapiens, UniProt O14965); assay: Aurora A kinase inhibition (biochemical assay); details: Table 2; Mean ± SEM, four repeats; read-out: Aurora A kinase inhibition IC50
# T1 sequence (O14965 1-403): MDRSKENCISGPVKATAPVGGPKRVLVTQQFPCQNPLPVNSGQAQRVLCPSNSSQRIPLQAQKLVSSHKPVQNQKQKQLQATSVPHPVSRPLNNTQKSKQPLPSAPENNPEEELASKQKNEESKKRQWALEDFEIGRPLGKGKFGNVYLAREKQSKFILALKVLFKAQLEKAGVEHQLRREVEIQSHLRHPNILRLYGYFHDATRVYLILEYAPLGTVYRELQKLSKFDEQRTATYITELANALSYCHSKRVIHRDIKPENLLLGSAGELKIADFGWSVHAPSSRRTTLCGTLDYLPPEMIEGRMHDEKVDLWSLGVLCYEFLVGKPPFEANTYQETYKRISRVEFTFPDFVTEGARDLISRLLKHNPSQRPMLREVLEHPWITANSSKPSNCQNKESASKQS
# Aurora B = Aurora B (Homo sapiens, UniProt Q96GD4); assay: Aurora B kinase inhibition; assay type: biochemical; details: Table 3; Mean ± SEM
# Chain of Aurora B (Q96GD4 whole entry): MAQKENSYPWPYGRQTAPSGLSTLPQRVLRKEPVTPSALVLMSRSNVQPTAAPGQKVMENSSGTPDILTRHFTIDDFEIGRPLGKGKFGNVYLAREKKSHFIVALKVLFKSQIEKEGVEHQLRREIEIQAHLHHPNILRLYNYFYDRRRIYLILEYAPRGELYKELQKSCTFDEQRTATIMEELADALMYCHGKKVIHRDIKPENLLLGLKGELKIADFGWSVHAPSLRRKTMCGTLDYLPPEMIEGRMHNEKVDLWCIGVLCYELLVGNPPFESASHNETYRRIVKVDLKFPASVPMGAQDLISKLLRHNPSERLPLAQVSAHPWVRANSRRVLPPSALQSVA
# c-Kit = c-Kit (Homo sapiens, UniProt P10721); assay: c-Kit kinase selectivity; assay type: biochemical; details: Mean ± SEM
# Chain of c-Kit (P10721 26-976): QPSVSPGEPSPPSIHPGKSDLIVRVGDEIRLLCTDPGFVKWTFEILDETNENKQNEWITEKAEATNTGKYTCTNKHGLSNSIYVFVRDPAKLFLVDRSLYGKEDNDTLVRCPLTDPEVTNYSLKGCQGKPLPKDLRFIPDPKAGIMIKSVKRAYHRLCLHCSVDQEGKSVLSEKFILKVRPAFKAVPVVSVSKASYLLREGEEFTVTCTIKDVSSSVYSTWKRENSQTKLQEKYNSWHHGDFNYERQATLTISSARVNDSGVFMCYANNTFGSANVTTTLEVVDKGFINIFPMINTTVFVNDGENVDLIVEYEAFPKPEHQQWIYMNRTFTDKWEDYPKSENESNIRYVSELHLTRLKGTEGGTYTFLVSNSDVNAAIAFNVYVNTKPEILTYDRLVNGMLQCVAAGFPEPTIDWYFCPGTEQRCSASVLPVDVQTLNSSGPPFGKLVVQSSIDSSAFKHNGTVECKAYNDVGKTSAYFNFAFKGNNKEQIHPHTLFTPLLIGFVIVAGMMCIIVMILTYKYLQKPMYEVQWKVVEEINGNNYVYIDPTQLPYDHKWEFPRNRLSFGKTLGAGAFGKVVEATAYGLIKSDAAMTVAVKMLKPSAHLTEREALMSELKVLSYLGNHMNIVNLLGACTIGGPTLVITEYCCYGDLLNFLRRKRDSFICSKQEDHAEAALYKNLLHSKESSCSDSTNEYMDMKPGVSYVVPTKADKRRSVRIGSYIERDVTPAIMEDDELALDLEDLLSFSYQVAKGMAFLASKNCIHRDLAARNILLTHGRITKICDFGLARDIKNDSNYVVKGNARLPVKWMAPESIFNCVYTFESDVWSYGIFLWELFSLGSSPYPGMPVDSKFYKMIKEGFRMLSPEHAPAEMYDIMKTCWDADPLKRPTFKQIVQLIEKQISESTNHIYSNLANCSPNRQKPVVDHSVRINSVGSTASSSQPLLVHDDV
# CSK = CSK (Homo sapiens, UniProt P41240); assay: CSK kinase selectivity; assay type: biochemical; details: Mean ± SEM
# Chain of CSK (P41240 whole entry, species assumed): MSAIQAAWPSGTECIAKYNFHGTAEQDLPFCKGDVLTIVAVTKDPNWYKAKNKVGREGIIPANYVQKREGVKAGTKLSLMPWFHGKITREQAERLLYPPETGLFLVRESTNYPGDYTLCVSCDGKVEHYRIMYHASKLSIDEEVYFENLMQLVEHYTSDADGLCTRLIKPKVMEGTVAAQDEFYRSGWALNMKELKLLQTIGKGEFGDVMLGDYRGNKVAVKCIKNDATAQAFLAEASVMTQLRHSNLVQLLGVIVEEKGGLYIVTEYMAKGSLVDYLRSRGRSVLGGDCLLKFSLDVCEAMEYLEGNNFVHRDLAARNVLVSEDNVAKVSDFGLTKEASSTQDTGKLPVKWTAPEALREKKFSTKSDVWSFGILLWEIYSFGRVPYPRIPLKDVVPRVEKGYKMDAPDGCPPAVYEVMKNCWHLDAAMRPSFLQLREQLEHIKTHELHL
# EPHA2 = EPHA2 (Homo sapiens, UniProt P29317); assay: EPHA2 kinase selectivity; assay type: biochemical; details: Mean ± SEM
# Chain of EPHA2 (P29317 24-976, species assumed): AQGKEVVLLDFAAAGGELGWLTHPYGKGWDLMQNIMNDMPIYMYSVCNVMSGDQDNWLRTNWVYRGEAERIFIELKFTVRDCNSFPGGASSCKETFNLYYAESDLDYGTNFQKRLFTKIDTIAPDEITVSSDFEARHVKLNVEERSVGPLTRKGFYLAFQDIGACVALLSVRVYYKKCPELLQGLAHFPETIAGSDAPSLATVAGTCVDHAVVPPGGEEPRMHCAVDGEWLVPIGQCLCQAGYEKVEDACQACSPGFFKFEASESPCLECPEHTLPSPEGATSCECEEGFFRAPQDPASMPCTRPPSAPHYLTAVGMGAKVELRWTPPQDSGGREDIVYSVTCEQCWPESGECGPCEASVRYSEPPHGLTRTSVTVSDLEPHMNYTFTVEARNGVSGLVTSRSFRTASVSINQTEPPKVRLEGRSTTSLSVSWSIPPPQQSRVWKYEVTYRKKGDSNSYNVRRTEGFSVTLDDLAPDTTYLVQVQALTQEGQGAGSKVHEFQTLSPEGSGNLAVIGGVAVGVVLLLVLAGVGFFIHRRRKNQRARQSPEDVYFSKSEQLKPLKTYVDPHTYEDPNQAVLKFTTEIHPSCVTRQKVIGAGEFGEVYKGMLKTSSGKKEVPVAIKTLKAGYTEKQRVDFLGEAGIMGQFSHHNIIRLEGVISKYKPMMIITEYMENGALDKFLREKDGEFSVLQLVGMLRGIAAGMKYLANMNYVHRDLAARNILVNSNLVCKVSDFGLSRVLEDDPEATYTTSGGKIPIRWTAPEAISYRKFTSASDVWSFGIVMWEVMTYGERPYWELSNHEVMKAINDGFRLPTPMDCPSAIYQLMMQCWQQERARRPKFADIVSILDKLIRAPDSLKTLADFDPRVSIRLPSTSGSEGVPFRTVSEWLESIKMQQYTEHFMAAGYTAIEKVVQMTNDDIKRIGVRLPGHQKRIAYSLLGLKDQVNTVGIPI
# JNK3 = JNK3 (Homo sapiens, UniProt P53779); assay: JNK3 kinase selectivity; assay type: biochemical; details: Mean ± SEM
# Chain of JNK3 (P53779 whole entry, species assumed): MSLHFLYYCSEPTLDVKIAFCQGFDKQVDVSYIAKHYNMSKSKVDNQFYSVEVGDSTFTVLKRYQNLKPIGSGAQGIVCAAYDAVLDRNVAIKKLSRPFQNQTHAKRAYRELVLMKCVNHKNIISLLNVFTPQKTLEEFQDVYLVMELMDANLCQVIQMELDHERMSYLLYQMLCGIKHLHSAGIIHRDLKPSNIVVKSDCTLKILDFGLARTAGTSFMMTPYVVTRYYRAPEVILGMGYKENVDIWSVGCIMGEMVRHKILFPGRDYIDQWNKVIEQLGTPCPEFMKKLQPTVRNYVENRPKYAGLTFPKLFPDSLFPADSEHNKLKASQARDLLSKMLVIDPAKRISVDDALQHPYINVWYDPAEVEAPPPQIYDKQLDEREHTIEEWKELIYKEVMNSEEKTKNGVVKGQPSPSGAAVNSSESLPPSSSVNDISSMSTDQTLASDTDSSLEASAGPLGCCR
# LYN = LYN (Homo sapiens, UniProt P07948); assay: LYN kinase selectivity; assay type: biochemical; details: Mean ± SEM
# RON = RON (Homo sapiens, UniProt Q04912); assay: RON kinase selectivity; assay type: biochemical; details: Mean ± SEM
# [1] = Solubility (nephelometry); assay type: physicochemical; details: kinetic from dmso stock
# [2] = system: HL-60 (acute promyelocytic leukemia); assay: MTT cytotoxicity, HL-60; assay type: cell-based; details: Homo sapiens; HL-60, MTT, 72 h
# From the text: (§1) All cells lines were purchased in ATCC (Manassas, VA, USA), except for human primary fibroblasts (HFB), which were a generous gift from Dashinimaev E.B. (Koltsov Institute of Developmental Biology). H1299 (lung adenocarcinoma), H23 (lung adenocarcinoma), Colo320 (colon carcinoma), RS4;11 (acute lymphoblastic leukemia), PC3 (prostate adenocarcinoma) and HL-60 (acute promyelocytic leukemia) were cultivated in RPMI-1640 medium, with addition of 10% fetal calf serum (HyClone, South Logan, Utah, USA) and 2 mM L-Glutamine at 37 °C, 5% CО2. MDA-MB-453 (mammary adenocarcinoma), A549 (lung adenocarcinoma), HCT-116 (colon carcinoma), A431 (epidermoid carcinoma), MDA-MB-231 (mammary adenocarcinoma), BxPC3 (pancreatic adenocarcinoma), MEF (mouse embryonic fibroblasts, SV-40 immortalized), MEF Bax^−/−/Bak^−/− knockout cells (mouse embryonic fibroblasts, SV-40 immortalized, resistant to apoptosis) were cultivated in DMEM medium, with addition of 10% fetal calf serum (HyClone) and 2 mM L-Glutamine at 37 °C, 5% CО2.
# (§2) Cells were seeded in 96-well plates (Corning, NY, USA): 5000 cells per well for adhesive cultures and cells, 25,000 cells per well for suspension cultures. Analyzed substances were added in 0.1–50 μM concentration range, with 2 × dilutions, and incubated for 72 h at 37 °C, 5% CО2. After incubation 20 uL of 5 mg/mL of water solution of 3-(4,5-dimethylthiazol-2-yl)-2,5-diphenyltetrazolium bromide (MTT, PANEKO, Moscow, Russia) was added to the cells and they were incubated for additional 4 h. After the incubation the medium was aspirated, cells were dissolved in 100 uL of DMSO and the optical density was measured at 570 nm with a МultiscanFC plate reader (ThermoScientific, Cambridge, MA, USA). The percentage of surviving cells at each dose was calculated by dividing the optical density of treated cells by the optical density of untreated control (which was taken as 100%). The IC50s were calculated in GraphPad Prism 5.0.
# [3] = system: H23 (lung adenocarcinoma); assay: MTT cytotoxicity, H23; assay type: cell-based; details: 72 h
# From the text: as §1, §2
# [4] = system: H1299 (lung adenocarcinoma); assay: MTT cytotoxicity, H1299; assay type: cell-based; details: Homo sapiens, NCI-H1299, 72 h
# From the text: as §1, §2
# [5] = system: PC3 (prostate adenocarcinoma); assay: MTT cytotoxicity, PC3; assay type: cell-based; details: 72 h
# From the text: as §1, §2
# [6] = system: MDA-MB-453 (mammary adenocarcinoma); assay: MTT cytotoxicity, MDA-MB-453; assay type: cell-based; details: Homo sapiens; MDA-MB-453, MTT, 72 h
# From the text: as §1, §2
# [7] = system: RS4;11 (acute lymphoblastic leukemia); assay: MTT cytotoxicity, RS4;11; assay type: cell-based; details: Homo sapiens; RS4;11, MTT, 72 h
# From the text: as §1, §2
# [8] = system: A-549 (lung adenocarcinoma); assay: MTT cytotoxicity, A-549; assay type: cell-based; details: Homo sapiens, A549; A-549, MTT, 72 h
# From the text: as §1, §2
# [9] = system: HCT-116 (colon carcinoma); assay: MTT cytotoxicity, HCT-116; assay type: cell-based; details: Homo sapiens; HCT-116, MTT, 72 h
# From the text: as §1, §2
# MTT cytotoxicity, HFB = assay type: cell-based; details: human, human primary fibroblasts (HFB)
# From the text: as §1, §2
# [10] = system: A431 (epidermoid carcinoma); assay: MTT cytotoxicity, A431; assay type: cell-based; details: Homo sapiens, A-431, 72 h
# From the text: as §1, §2
# [11] = system: Colo-320 (colon carcinoma); assay: MTT cytotoxicity, Colo-320; assay type: cell-based; details: Homo sapiens; Colo-320, MTT, 72 h
# From the text: as §1, §2
# [12] = system: MDA-MB231 (mammary adenocarcinoma); assay: MTT cytotoxicity, MDA-MB231; assay type: cell-based; details: Homo sapiens, MDA-MB-231, 72 h
# From the text: as §1, §2
# [13] = system: BxPC3 (pancreatic adenocarcinoma); assay: MTT cytotoxicity, BxPC3; assay type: cell-based; details: Homo sapiens, BXPC-3, 72 h
# From the text: as §1, §2
# [14] = MTT cytotoxicity, MEFs Dko; assay type: cell-based; details: mouse, MEFs Dko (bax−/−bak−/−)
# From the text: as §1, §2
# MTT cytotoxicity, MEF WT = assay type: cell-based; details: mouse
# From the text: as §1, §2
# GSK-3 = GSK-3 kinase selectivity; assay type: biochemical; details: Mean ± SEM
# CYP2C19 = CYP2C19 (Homo sapiens, UniProt P33261); assay: CYP2C19 inhibition; assay type: in vitro ADME; details: Mean ± SEM
# Chain of CYP2C19 (P33261 whole entry): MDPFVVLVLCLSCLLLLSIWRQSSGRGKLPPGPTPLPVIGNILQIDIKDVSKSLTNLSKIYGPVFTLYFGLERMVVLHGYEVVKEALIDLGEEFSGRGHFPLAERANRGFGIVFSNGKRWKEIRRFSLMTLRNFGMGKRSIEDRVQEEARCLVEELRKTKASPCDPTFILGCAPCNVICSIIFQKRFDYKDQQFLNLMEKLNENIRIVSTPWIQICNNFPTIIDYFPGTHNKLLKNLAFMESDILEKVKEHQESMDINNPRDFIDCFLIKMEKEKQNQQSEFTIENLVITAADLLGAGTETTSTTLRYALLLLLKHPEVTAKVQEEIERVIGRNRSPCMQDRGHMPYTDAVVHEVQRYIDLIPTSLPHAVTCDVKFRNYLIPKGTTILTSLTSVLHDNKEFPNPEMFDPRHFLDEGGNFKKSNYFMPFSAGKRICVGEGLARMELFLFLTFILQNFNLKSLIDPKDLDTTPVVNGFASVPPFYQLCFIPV
# CYP 2C9 = CYP 2C9 (Homo sapiens, UniProt P11712); assay: CYP 2C9 inhibition; assay type: in vitro ADME; details: Mean ± SEM
# Chain of CYP 2C9 (P11712 whole entry): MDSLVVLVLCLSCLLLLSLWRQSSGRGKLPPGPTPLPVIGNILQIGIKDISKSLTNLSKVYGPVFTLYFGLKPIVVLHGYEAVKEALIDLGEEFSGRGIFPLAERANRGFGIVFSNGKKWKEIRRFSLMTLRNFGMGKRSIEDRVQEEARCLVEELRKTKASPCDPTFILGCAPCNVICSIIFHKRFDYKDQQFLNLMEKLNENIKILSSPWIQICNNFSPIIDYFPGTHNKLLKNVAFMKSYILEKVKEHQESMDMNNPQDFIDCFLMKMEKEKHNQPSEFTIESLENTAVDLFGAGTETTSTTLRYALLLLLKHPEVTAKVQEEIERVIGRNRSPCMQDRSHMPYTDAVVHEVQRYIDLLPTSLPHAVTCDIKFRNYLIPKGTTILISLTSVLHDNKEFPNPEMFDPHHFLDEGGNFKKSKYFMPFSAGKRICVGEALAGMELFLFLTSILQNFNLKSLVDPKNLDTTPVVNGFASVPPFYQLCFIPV
# CYP3A4 = CYP3A4 (Homo sapiens, UniProt P08684); assay: CYP3A4 inhibition; assay type: in vitro ADME; details: Mean ± SEM
# Chain of CYP3A4 (P08684 whole entry): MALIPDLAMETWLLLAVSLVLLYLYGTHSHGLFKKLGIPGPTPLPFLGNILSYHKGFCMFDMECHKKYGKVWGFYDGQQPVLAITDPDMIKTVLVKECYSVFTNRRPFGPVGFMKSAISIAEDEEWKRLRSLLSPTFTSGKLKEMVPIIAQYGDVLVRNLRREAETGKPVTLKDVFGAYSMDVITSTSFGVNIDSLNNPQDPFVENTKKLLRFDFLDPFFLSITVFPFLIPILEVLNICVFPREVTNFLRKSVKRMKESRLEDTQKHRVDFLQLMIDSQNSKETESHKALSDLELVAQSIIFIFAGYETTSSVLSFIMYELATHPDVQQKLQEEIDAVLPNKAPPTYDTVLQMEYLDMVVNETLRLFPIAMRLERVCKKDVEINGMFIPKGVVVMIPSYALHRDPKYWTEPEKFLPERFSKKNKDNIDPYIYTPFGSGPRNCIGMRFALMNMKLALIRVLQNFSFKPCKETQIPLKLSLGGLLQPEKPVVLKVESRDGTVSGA
compound,measurement,setting,value
"Cc1cc(Nc2ncc(Cl)s2)nc(CC2CCN(C(=O)c3cccc(Cl)c3F)CC2)n1 [Compound 13, (3-Chloro-2-fluoro-phenyl)-{4-[4-(5-chloro-thiazol-2-ylamino)-6-methyl-pyrimidin-2-ylmethyl]-piperidin-1-yl}-methanone]",IC50,Aurora A,0.0041 ± 0.00035 µM
same,IC50,Aurora B,0.232 ± 0.0241 µM
same,IC50,c-Kit,17 µM
same,IC50,CSK,9.5 ± 0.101 µM
same,IC50,EPHA2,9 ± 0.985 µM
same,IC50,JNK3,0.0852 ± 0.0091 µM
same,IC50,LYN,3.27 ± 0.324 µM
same,IC50,RON,0.97 ± 0.101 µM
same,solubility,[1],< 10 µg/mL
same,IC50,[2],20.9 ± 2.1 µM
same,IC50,[3],1.2 ± 0.09 µM
same,IC50,[4],1.1 ± 0.1 µM
same,IC50,[5],3.9 ± 0.4 µM
same,IC50,[6],8 ± 0.79 µM
same,IC50,[7],1.1 ± 0.11 µM
same,IC50,[8],5.1 ± 0.4 µM
same,IC50,[9],4.4 ± 0.5 µM
same,IC50 at 72 h,"MTT cytotoxicity, HFB",2.8 ± 0.3 µM
same,IC50,[10],6.1 ± 0.7 µM
same,IC50,[11],1 ± 0.11 µM
same,IC50,[12],10.5 ± 1.1 µM
same,IC50,[13],2.4 ± 0.14 µM
same,IC50 at 48 h,[14],3.6 ± 0.3 µM
same,IC50 at 48 h,"MTT cytotoxicity, MEF WT",2.5 ± 0.3 µM
same,melting point,,221 to 223 °C
"Cc1cc(Nc2ccn[nH]2)nc(CC2CCN(C(=O)c3cccc(Cl)c3F)CC2)n1 [Compound 14, (3-Chloro-2-fluoro-phenyl)-{4-[4-methyl-6-(2H-pyrazol-3-ylamino)-pyrimidin-2-ylmethyl]-piperidin-1-yl}-methanone]",IC50,Aurora A,0.0053 ± 0.00046 µM
same,IC50,Aurora B,18.3 µM
same,IC50,c-Kit,21 µM
same,IC50,GSK-3,0.109 ± 0.0121 µM
same,IC50,JNK3,1.63 ± 0.167 µM
same,IC50,CYP2C19,9.6 ± 0.96 µM
same,IC50,CYP 2C9,3.9 ± 0.401 µM
same,IC50,CYP3A4,15.1 ± 0.151 µM
same,solubility,[1],> 100 µg/mL
same,melting point,,125 to 128 °C
"Cc1cc(Nc2ccnc(CC3CCN(C(=O)c4cccc(Cl)c4F)CC3)n2)[nH]n1 [Compound 16, (3-Chloro-2-fluoro-phenyl)-{4-[4-(5-methyl-2H-pyrazol-3-ylamino)-pyrimidin-2-ylmethyl]-piperidin-1-yl}-methanone]",IC50,Aurora A,0.0035 ± 0.00029 µM
same,IC50,Aurora B,4.182 ± 0.0401 µM
same,IC50,GSK-3,0.293 ± 0.0312 µM
same,IC50,JNK3,0.572 ± 0.0561 µM
same,IC50,CYP2C19,0.966 ± 0.0941 µM
same,IC50,CYP 2C9,0.327 ± 0.033 µM
same,IC50,CYP3A4,0.596 ± 0.0601 µM
same,solubility,[1],> 100 µg/mL
same,IC50,[2],> 50 µM
same,IC50,[3],> 50 µM
same,IC50,[4],1.5 ± 0.12 µM
same,IC50,[5],8.3 ± 0.8 µM
same,IC50,[6],12 ± 1.2 µM
same,IC50,[7],0.3 ± 0.02 µM
same,IC50,[8],8.8 ± 0.9 µM
same,IC50,[9],4.2 ± 0.4 µM
same,IC50 at 72 h,"MTT cytotoxicity, HFB",3.3 ± 0.3 µM
same,IC50,[10],9 ± 1 µM
same,IC50,[11],1.2 ± 0.03 µM
same,IC50,[12],> 50 µM
same,IC50,[13],8.1 ± 0.8 µM
same,IC50 at 48 h,[14],4.5 ± 0.5 µM
same,IC50 at 48 h,"MTT cytotoxicity, MEF WT",0.9 ± 0.1 µM
